Laboratory results taken from the supplement of paper PMC11061612.

How the values were obtained:
Experiment in all cases: Bliss excess, mean over the matrix (fraction); higher = more synergy
[1] = tested on: Daoy (Other Solid Carcinomas)
Method in brief: (§1)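 Bliss excess equals the observed combination effect minus the expected value EA + EB − EA·EB, where EA and EB are the effects of each agent alone. Combination Emax is the second-highest inhibition within the matrix. Inhibition was scaled from CellTiter-Glo 2.0 luminescence, with 0 set by vehicle wells and 1 by blank wells, after 72 hours of two-drug dosing of cells plated in 1536-well plates.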

[2] = tested on: NCI-H2085 (Non-Small Cell Lung Carcinoma)
Method in brief: as §1

[3] = tested on: LU-135 (Small Cell Lung Carcinoma)
Method in brief: as §1

[4] = tested on: HuP-T4 (Pancreatic Carcinoma)
Method in brief: as §1

NB10 (Neuroblastoma) = tested on: NB10 (Neuroblastoma)
Method in brief: as §1

[5] = tested on: CaR-1 (Colorectal Carcinoma)
Method in brief: as §1

T98G (Glioblastoma) = tested on: T98G (Glioblastoma)
Method in brief: as §1

[6] = tested on: OVCA420 (Ovarian Carcinoma)
Method in brief: as §1

[7] = tested on: CCRF-CEM (T-Lymphoblastic Leukemia)
Method in brief: as §1

[8] = tested on: SNU-5 (Gastric Carcinoma)
Method in brief: as §1

[9] = tested on: COLO-205 (Colorectal Carcinoma)
Method in brief: as §1

[10] = tested on: HCC-78 (Lung Adenocarcinoma)
Method in brief: as §1

[11] = tested on: TE-15 (Esophageal Squamous Cell Carcinoma)
Method in brief: as §1

[12] = tested on: HT-1376 (Bladder Carcinoma)
Method in brief: as §1

HOS (Osteosarcoma) = tested on: HOS (Osteosarcoma)
Method in brief: as §1

[13] = tested on: KP-1N (Pancreatic Carcinoma)
Method in brief: as §1

[14] = tested on: LB831-BLC (Bladder Carcinoma)
Method in brief: as §1

[15] = tested on: EC-GI-10 (Esophageal Squamous Cell Carcinoma)
Method in brief: as §1

NOS-1 (Osteosarcoma) = tested on: NOS-1 (Osteosarcoma)
Method in brief: as §1

| Compound | Bliss excess [1] | Bliss excess [2] | Bliss excess [3] | Bliss excess [4] | Bliss excess (NB10 (Neuroblastoma)) | Bliss excess [5] | Bliss excess (T98G (Glioblastoma)) | Bliss excess [6] | Bliss excess [7] | Bliss excess [8] | Bliss excess [9] | Bliss excess [10] | Bliss excess [11] | Bliss excess [12] | Bliss excess (HOS (Osteosarcoma)) | Bliss excess [13] | Bliss excess [14] | Bliss excess [15] | Bliss excess (NOS-1 (Osteosarcoma)) |
| --- | --- | --- | --- | --- | --- | --- | --- | --- | --- | --- | --- | --- | --- | --- | --- | --- | --- | --- | --- |
| CN(C)CCCOc1ccc(-c2ccc3ncc4c(c3c2)n(C2CCOCC2)c(=O)n4C)cn1 [AZD0156] + C=CCn1c(=O)c2cnc(Nc3ccc(N4CCN(C)CC4)cc3)nc2n1-c1cccc(C(C)(C)O)n1 [AZD1775] (first compound max 1 µM, partner max 1 µM) | -0.0151 | -0.0406 | 0.0024 | -0.022 | -0.0093 | -0.0445 | -0.0598 | -0.0225 | 0.0192 | -0.0705 | -0.0229 | 0.0011 | -0.0705 | -0.134 | -0.0196 | -0.0207 | -0.104 | -0.0001 | -0.0113 |
| CN(C)CCCOc1ccc(-c2ccc3ncc4c(c3c2)n(C2CCOCC2)c(=O)n4C)cn1 [AZD0156] + CCN(CCO)CCCOc1ccc2c(Nc3cc(CC(=O)Nc4cccc(F)c4)[nH]n3)ncnc2c1 [AZD2811] (first compound max 1 µM, 7x7, partner max 1 µM) | 0.0069 | -0.0194 | -0.0008 | -0.005 | -0.0464 | -0.0097 | -0.0655 | -0.0308 | 0.0045 | 0.0036 | 0.0035 | -0.0058 | -0.0382 | -0.0665 | -0.0186 | 0.0312 | -0.0356 | 0.0507 | -0.0114 |
| CN(C)CCCOc1ccc(-c2ccc3ncc4c(c3c2)n(C2CCOCC2)c(=O)n4C)cn1 [AZD0156] + C[C@@H]1COCCN1C2=NC(=NC(=C2)C3(CC3)[S@](=N)(=O)C)C4=C5C=CNC5=NC=C4 [AZD6738] (first compound max 1 µM, 7x7, partner max 10 µM) | 0.0287 | 0.0274 | -0.032 | 0.0118 | -0.038 | -0.0449 | -0.0297 | 0.0052 | 0.0002 | -0.0347 | -0.0057 | -0.0031 | -0.0283 | -0.0193 | 0.024 | 0.0261 | -0.0333 | 0.0263 | -0.0241 |
| C=CCn1c(=O)c2cnc(Nc3ccc(N4CCN(C)CC4)cc3)nc2n1-c1cccc(C(C)(C)O)n1 [AZD1775] + C[C@@H]1COCCN1C2=NC(=NC(=C2)C3(CC3)[S@](=N)(=O)C)C4=C5C=CNC5=NC=C4 [AZD6738] (first compound max 1 µM, partner max 10 µM) | 0.0863 | 0.0147 | -0.0044 | 0.0849 | 0.0822 | 0.0177 | -0.0178 | 0.0441 | 0.0391 |  | 0.141 | 0.0101 | -0.0076 | -0.0483 | 0.106 | 0.0055 | 0.0042 | 0.0535 | 0.0735 |
| C=CCn1c(=O)c2cnc(Nc3ccc(N4CCN(C)CC4)cc3)nc2n1-c1cccc(C(C)(C)O)n1 [AZD1775] + O=C(c1cc(Cc2n[nH]c(=O)c3ccccc23)ccc1F)N1CCN(C(=O)C2CC2)CC1 [Olaparib] (first compound max 1 µM, partner max 10 µM) | 0.044 | -0.0353 | -0.0249 | 0.0075 | -0.0088 | -0.0077 | -0.113 | 0.0916 | -0.0381 | -0.0833 | -0.0149 | -0.029 | -0.106 | -0.0509 | -0.0389 | -0.0239 | -0.01 | -0.0245 | 0.0285 |
| CCN(CCO)CCCOc1ccc2c(Nc3cc(CC(=O)Nc4cccc(F)c4)[nH]n3)ncnc2c1 [AZD2811] + C=CCn1c(=O)c2cnc(Nc3ccc(N4CCN(C)CC4)cc3)nc2n1-c1cccc(C(C)(C)O)n1 [AZD1775] (first compound max 1 µM, partner max 1 µM) | 0.026 | 0.0061 | -0.0346 | 0.0274 | -0.0399 | -0.0165 | -0.0167 | -0.0047 | 0.006 | -0.0294 | 0.008 | 0.0092 | -0.0576 | -0.0947 | 0.0066 | 0.0124 | 0.005 | 0.0411 | 0.0045 |
| CCN(CCO)CCCOc1ccc2c(Nc3cc(CC(=O)Nc4cccc(F)c4)[nH]n3)ncnc2c1 [AZD2811] + C[C@@H]1COCCN1C2=NC(=NC(=C2)C3(CC3)[S@](=N)(=O)C)C4=C5C=CNC5=NC=C4 [AZD6738] (first compound max 1 µM, 7x7, partner max 10 µM) | -0.0153 | -0.0913 | -0.0552 | 0.0305 | -0.056 | -0.0528 | -0.0645 | -0.0777 | -0.0295 | -0.0209 | -0.0872 | 0.0099 | -0.0063 | -0.0566 | -0.0432 | -0.0189 | -0.0744 | 0.0182 | 0.0036 |
| CCN(CCO)CCCOc1ccc2c(Nc3cc(CC(=O)Nc4cccc(F)c4)[nH]n3)ncnc2c1 [AZD2811] + O=C(c1cc(Cc2n[nH]c(=O)c3ccccc23)ccc1F)N1CCN(C(=O)C2CC2)CC1 [Olaparib] (first compound max 1 µM, 7x7, partner max 10 µM) | 0.0678 | -0.0109 | -0.0632 | -0.0055 | -0.0445 | 0.0213 | 0.0112 | 0.0008 | -0.0134 | -0.0237 | 0.0075 | 0.0013 | -0.0125 | -0.0499 | -0.0188 | -0.0175 | 0.0083 | 0.0377 | 0.0085 |
| C[C@@H]1COCCN1c1cc(C2([S@](C)(=N)=O)CC2)nc(-c2ccnc3[nH]ccc23)n1 [AZD6738] + O=C(c1cc(Cc2n[nH]c(=O)c3ccccc23)ccc1F)N1CCN(C(=O)C2CC2)CC1 [Olaparib] (first compound max 10 µM, 7x7, partner max 10 µM) | 0.0116 | -0.0571 | 0.0331 | -0.0037 | 0.0017 | -0.0391 | -0.0192 | 0.0117 | 0.0377 | -0.0464 | 0.0205 | 0.0171 | -0.0465 | -0.0687 | 0.0132 | 0.0379 | 0.0336 | -0.0147 | 0.0554 |
| Cc1cc2ncnn2cc1Nc1ncc2c(n1)n(C1CCOCC1)c(=O)n2C [AZD7648] + C=CCn1c(=O)c2cnc(Nc3ccc(N4CCN(C)CC4)cc3)nc2n1-c1cccc(C(C)(C)O)n1 [AZD1775] (first compound max 10 µM, partner max 1 µM) | 0.0018 | 0.0418 | -0.0169 | 0.0417 | -0.0812 | 0.0022 | 0.0062 | -0.0186 | 0.0337 | 0.0073 | -0.026 | -0.0417 | 0.0223 | 0.0121 | -0.0109 | -0.0681 | -0.0611 | -0.0049 | -0.0145 |
| Cc1cc2ncnn2cc1Nc1ncc2c(n1)n(C1CCOCC1)c(=O)n2C [AZD7648] + CCN(CCO)CCCOc1ccc2c(Nc3cc(CC(=O)Nc4cccc(F)c4)[nH]n3)ncnc2c1 [AZD2811] (first compound max 10 µM, 7x7, partner max 1 µM) | 0.0083 | 0.0409 | -0.0223 | 0.0254 | 0.0524 | -0.0102 | 0.0116 | -0.0057 | -0.0396 | 0.0543 | -0.0303 | -0.014 | -0.0213 | -0.0382 | 0.0182 | -0.02 | -0.0477 | 0.0846 | -0.0036 |
| Cc1cc2ncnn2cc1Nc1ncc2c(n1)n(C1CCOCC1)c(=O)n2C [AZD7648] + CN(C)CCCOc1ccc(-c2ccc3ncc4c(c3c2)n(C2CCOCC2)c(=O)n4C)cn1 [AZD0156] (first compound max 10 µM, 7x7, partner max 1 µM) | 0.0614 | -0.0343 | -0.0088 | 0.0393 | -0.0024 | 0.0399 | -0.0317 | 0.019 | -0.003 | 0.0166 | 0.0271 | 0.0106 | -0.0383 | 0.0037 | -0.0172 | -0.0058 | -0.0154 | 0.0001 | 0.0258 |
| Cc1cc2ncnn2cc1Nc1ncc2c(n1)n(C1CCOCC1)c(=O)n2C [AZD7648] + C[C@@H]1COCCN1C2=NC(=NC(=C2)C3(CC3)[S@](=N)(=O)C)C4=C5C=CNC5=NC=C4 [AZD6738] (first compound max 10 µM, 7x7, partner max 10 µM) | 0.0328 | 0.0007 | 0.0123 | 0.0353 | -0.0306 | 0.0287 | 0.0339 | 0.0074 | 0.0206 | 0.0337 | 0.0195 | -0.0011 | -0.0193 | 0.0176 | 0.0345 | -0.0035 | 0.0485 | -0.0064 | 0.0761 |
| CS(=O)(=O)CCNCc1ccc(-c2ccc3ncnc(Nc4ccc(OCc5cccc(F)c5)c(Cl)c4)c3c2)o1 [Lapatinib] + Cn1cnc2c(F)c(Nc3ccc(Br)cc3Cl)c(C(=O)NOCCO)cc21 [Selumetinib] (first compound max 10 µM, 7x7, partner max 10 µM) |  | -0.0366 |  |  | 0.0376 | 0.0337 | 0.0075 |  | -0.0051 |  |  | -0.0196 | -0.0388 | 0.0188 | -0.0848 |  | -0.0344 |  |  |
| CS(=O)(=O)CCNCc1ccc(-c2ccc3ncnc(Nc4ccc(OCc5cccc(F)c5)c(Cl)c4)c3c2)o1 [Lapatinib] + NC1(c2ccc(-c3nc4ccn5c(=O)[nH]nc5c4cc3-c3ccccc3)cc2)CCC1 [MK-2206] (first compound max 10 µM, 7x7, partner max 10 µM) |  | 0.0463 |  |  | -0.0423 | -0.0032 | 0.0128 | 0.0085 | 0.026 | 0.0404 |  | -0.0464 | -0.0202 | -0.0333 | -0.0218 |  | -0.0044 |  |  |
| CCc1c2c(nc3ccc(O)cc13)-c1cc3c(c(=O)n1C2)COC(=O)[C@]3(O)CC [SN-38] + O=C(c1cc(Cc2n[nH]c(=O)c3ccccc23)ccc1F)N1CCN(C(=O)C2CC2)CC1 [Olaparib] (first compound max 0.3 µM, 7x7, partner max 10 µM) | 0.119 | -0.0181 | 0.0545 | 0.0913 | -0.0154 | 0.0221 | 0.107 |  | 0.0463 |  | 0.0491 | 0.0106 | 0.0207 | -0.0464 | 0.0819 | 0.0647 | 0.0617 |  | -0.0251 |
